Results taken from US7927639B2, “Mixture of Propionibacterium jensenii and Lactobacillus sp. with antimicrobial activities for the use as natural preservation system” (Eidgenossische Technische Hochschule Zurich, priority 2001, dated 2011).

Columns and labels:
Type in all cases: cell-based
[1] = tested on: fungi listed in Table 1; assay: Antifungal activities in agar plates (overall statements); conditions: YM agar plates stored at 6° C.
Procedure: (§1) Agar plates were prepared, supplemented with Propionbacterium jensenii SM11 or an antimicrobial Lactobacillusor a combination of both. The cultures were previously grown separately for 72 h at 32° C. in supplemented whey permeate (SWP1), centrifugated, washed once and resuspended (1:1) in 0.85% NaCl and then serially diluted in dilution-buffer (0.85% NaCl, 0.1% peptone). Portions of 20 ml of agar were prepared with 10% of each dilution to give a final level of 10^5, 10^6, 10^7 and 10^8 cfu/ml. Agar plates were poured and after solidifying, portions of approximately 2-5 μl of broth cultures of the indicator strains were spot inoculated on the plates. YM agar was used for yeasts and moulds and BHI agar for bacteria. Triplex of the agar plates were stored at 6° C., 12° C. and 25° C. for up to 4 weeks and the growth of indicator organisms was controlled weekly for 6° C. or daily for 12° C. and 25° C. As a control, agar plates without supplementation of lactobacilli and propionibacteria were prepared as well as agar plates with an addition of 1 g/l Ka-Sorbat (EU-Richtlinie, Nr. 95/2/HG).
A total of 18 lactobacilli were tested for their antifungal activities alone or in combination with the high-antifungal Propionibacterium jensenii SM11. […]

[2] = tested on: Candida parapsilosis 4-5/1; assay: Antifungal activity in agar plates; conditions: storage 21 days at 6° C.; cultures incorporated in agar plates at 10^8 cfu/ml (SM17, SM39 10^7 cfu/ml); Ka-Sorbat 1 g/l; spot-inoculation with 10^6 cfu/ml
Procedure: as §1
(§2) A total of 18 lactobacilli were tested for their antifungal activities alone or in combination with the high-antifungal Propionibacterium jensenii SM11. Therefore, the strains were incorporated, after centrifugation and a washing step in concentrations from 10^5 to 10^8 cfu/ml in YM agar plates on which the fungi listed in Table 1 were spotted in corresponding levels from 10^1 to 10^7 cfu/ml. The plates were stored in different batches at 6° C., 12° C. and 25° C. The growth of yeasts was controlled weekly or daily, respectively. […] A cell number of 10^8 cfu/ml of the Lactobacillus-strain and 10^8 cfu/ml of the Propionibacterium-strain was necessary for high inhibitory activities. Table 4 indicates five examples of the antifungal activities observed at 6° C. with a concentration of 10^8 cfu/ml (10^7 cfu/ml for Lactobacillus plantarum SM17) against spot-inoculated yeasts in a density of 10^6 cfu/ml and against spot-inoculated 3-day cultures of moulds.

[3] = tested on: Candida valida 1-48/8; assay: Antifungal activity in agar plates; conditions: storage 21 days at 6° C.; cultures incorporated in agar plates at 10^8 cfu/ml (SM17, SM39 10^7 cfu/ml); Ka-Sorbat 1 g/l; spot-inoculation with 10^6 cfu/ml
Procedure: as §1, §2

[4] = tested on: Candida silvicola 4-42/1; assay: Antifungal activity in agar plates; conditions: storage 21 days at 6° C.; cultures incorporated in agar plates at 10^8 cfu/ml (SM17, SM39 10^7 cfu/ml); Ka-Sorbat 1 g/l; spot-inoculation with 10^6 cfu/ml
Procedure: as §1, §2

[5] = tested on: Candida magnoliae 1-35/1; assay: Antifungal activity in agar plates; conditions: storage 21 days at 6° C.; cultures incorporated in agar plates at 10^8 cfu/ml (SM17, SM39 10^7 cfu/ml); Ka-Sorbat 1 g/l; spot-inoculation with 10^6 cfu/ml
Procedure: as §1, §2

[6] = tested on: Candida pulcherrima 1-50/13; assay: Antifungal activity in agar plates; conditions: storage 21 days at 6° C.; cultures incorporated in agar plates at 10^8 cfu/ml (SM17, SM39 10^7 cfu/ml); Ka-Sorbat 1 g/l; spot-inoculation with 10^6 cfu/ml
Procedure: as §1, §2

[7] = tested on: Candida sp. 1-50/15; assay: Antifungal activity in agar plates; conditions: storage 21 days at 6° C.; cultures incorporated in agar plates at 10^8 cfu/ml (SM17, SM39 10^7 cfu/ml); Ka-Sorbat 1 g/l; spot-inoculation with 10^6 cfu/ml
Procedure: as §1, §2

[8] = tested on: Sporobolomyces salmonicolor 3-46/2; assay: Antifungal activity in agar plates; conditions: storage 21 days at 6° C.; cultures incorporated in agar plates at 10^8 cfu/ml (SM17, SM39 10^7 cfu/ml); Ka-Sorbat 1 g/l; spot-inoculation with 10^6 cfu/ml
Procedure: as §1, §2

[9] = tested on: Zygosaccharomyces bailii 1-48/1; assay: Antifungal activity in agar plates; conditions: storage 21 days at 6° C.; cultures incorporated in agar plates at 10^8 cfu/ml (SM17, SM39 10^7 cfu/ml); Ka-Sorbat 1 g/l; spot-inoculation with 10^6 cfu/ml
Procedure: as §1, §2

[10] = tested on: Candida reukaufii 4-73/4; assay: Antifungal activity in agar plates; conditions: storage 21 days at 6° C.; cultures incorporated in agar plates at 10^8 cfu/ml (SM17, SM39 10^7 cfu/ml); Ka-Sorbat 1 g/l; spot-inoculation with 10^6 cfu/ml
Procedure: as §1, §2

[11] = tested on: Candida krusei 3-69/2; assay: Antifungal activity in agar plates; conditions: storage 21 days at 6° C.; cultures incorporated in agar plates at 10^8 cfu/ml (SM17, SM39 10^7 cfu/ml); Ka-Sorbat 1 g/l; spot-inoculation with 10^6 cfu/ml
Procedure: as §1, §2

C/C=C/C=C/C(=O)[O-].[K+] [Ka-Sorbat]
++ (++ strong colony (≈0% inhibition)): colony growth of Candida silvicola 4-42/1 [4] | colony growth of Candida magnoliae 1-35/1 [5] | colony growth of Candida pulcherrima 1-50/13 [6] | colony growth of Candida sp. 1-50/15 [7] | colony growth of Candida reukaufii 4-73/4 [10]
weaker inhibitory activity: antifungal (inhibitory) activity in agar plates, in words [1]
− (− no colony (≈100% inhibition)): colony growth of Candida parapsilosis 4-5/1 [2] | colony growth of Candida valida 1-48/8 [3] | colony growth of Sporobolomyces salmonicolor 3-46/2 [8] | colony growth of Zygosaccharomyces bailii 1-48/1 [9] | colony growth of Candida krusei 3-69/2 [11]
